Results from US4119629A, “Certain azaphenoxathiin compounds” (priority 1977, dated 1978).
Read-outs that look alike come from different tables or passages of the source.

How the values were obtained:
[1] = Toxicity, survival time after im injection in DMSO; assay type: in vivo, mice
Text: The following represents initial test observations for one of the above identified compounds.
Table of Toxicity Data for
1,5-bis(thiophenyl)-2-nitrobenzene* (2e)
Animal** (mg/kg im DMSO) Time (Days)
**All mice were tail-coded.
***Sacrificed at the end of 14 days.

[2] = assay type: in vivo, mice; conditions: 50 mg/kg
Text: The following table illustrates utility of the compounds of the present invention as weight control agents.
Table of Weight Control Observed
With 1,5-bis(thiophenyl)-2-nitrobenzene
Animal (mg/kg) (grams) Date

[3] = LD50 studies of 7-chloro-1-azaphenoxathiin; assay type: in vivo
Text: Table of LD50 Studies of 7-chloro-1-azaphenoxathiin
Test Animal Survival Time
Group* Dose (mg/kg) (Days)
*All animals were tail-coded
**LD50; dependent on the toleration of the animal for this drug

[4] = Spontaneous and forced motor activity tests; assay type: in vivo
Method: (§1) Further, the action of the drug at 200 mg/kg in the spontaneous motor activity test tends to reverse with greater activity observed (47%). An additional set of data was also acquired for this compound which was barbiturate induced sleeping time potentiation. […] Thus, compounds that may be prepared in accordance with Equation 3 above are: […]

[5] = Hexobarbital sleeping time potentiation; assay type: in vivo; conditions: control 58.5
Method: as §1
(§2) Table of Barbiturate Sleeping Time Potentiation With
(§3) 7-Chloro-1-Azaphenoxathiin
Hexobarbital Sleeping Time Potentiation
(§4) Dose (mg/kg) Mean (min) SE (min)

[6] = Barbital sleeping time potentiation; assay type: in vivo; conditions: control 125.4
Method: as §1, §2, §3, §4
Barbital Sleeping Time Potentiation

[7] = Barbiturate induced sleeping time potentiation; assay type: in vivo; conditions: in all cases
Method: as §1

[8] = Effect on body temp., heart rate, and respiration in rats; assay type: in vivo; conditions: 100 mg/kg i.p.
Method: TABLE OF EFFECT OF 7-CHLORO-1-AZAPHENOXATHIIN 100 MG/KG I.P. ON
BODY TEMP., HEART RATE, AND RESPIRATION IN RATS

[9] = Strychnine anticonvulsant study; assay type: in vivo; conditions: for Average Onset Time: saline control 3.10
Text: TABLE OF STRYCHNINE ANTICONVULSANT STUDY
WITH 7-NITRO-1-AZAPHENOXATHIIN
Test Group Time (min) Deviation Error
______________________________________

[10] = Preliminary toxicity testing of 7-nitro-1-azaphenoxathiin
Method: These tests were run simultaneously using chloropromazine as a control. This compound was tested at doses of 50, 100 and 200 mg/kg.

Q: Which “death resulting from decreased CNS activity” value [1] does the source give for `O=[N+]([O-])c1ccc(Sc2ccccc2)cc1Sc1ccccc1` [1,5-bis(thiophenyl)-2-nitrobenzene] here?
A: The value was “death at higher doses”.

Q: And the Weight ([2]; animal #5, 7/16/77)?
A: The Weight was 16.0 grams.

Q: What about the Weight ([2]; animal #5, 7/17/77) of the same molecule?
A: Its Weight is 15.8 grams.

Q: What about the Weight ([2]; animal #5, 7/18/77) of the same molecule?
A: Its Weight is 16.0 grams.

Q: And the Weight ([2]; animal #5, 7/19/77)?
A: The Weight was 16.0 grams.

Q: What about the Weight ([2]; animal #5, 7/20/77) of the same molecule?
A: The Weight was 16.0 grams.

Q: What about the Weight ([2]; animal #5, 7/21/77) of the same molecule?
A: The Weight was 16.0 grams.

Q: What does the source list for `Clc1ccc2c(c1)Oc1cccnc1S2` [7-chloro-1-azaphenoxathiin]?
A: Survival Time ([3]; 50 mg/kg, group 1, 14-day test period): 14 days; Survival Time ([3]; 100 mg/kg, group 2, 14-day test period): 14 days; Survival Time ([3]; 250 mg/kg, group 3, 14-day test period): 14 days; Survival Time ([3]; 500 mg/kg, group 4, 14-day test period): 14 days; survival of the 14-day test period ([3]; 750 mg/kg): several lived the 14-day test period; Survival Time ([3]; 750 mg/kg, group 5, LD50, dependent on the toleration of the animal): 0 to 14 days; Survival Time ([3]; 1,000 mg/kg, group 6): 0 days; Survival Time ([3]; 1,500 mg/kg, group 7): 0 days; LD50 ([3]; in vivo): ~750 mg/kg; tolerability ([3]; test animals): generally well tolerated; greater activity observed in the spontaneous motor activity test ([4]; 200 mg/kg, action tends to reverse): 47%; potency in both spontaneous and forced motor activity tests ([4]; compared with 7-nitro-1-azaphenoxathiin): somewhat more potent than the former; Hexobarbital Sleeping Time, Mean ([5]; 25 mg/kg): 79.8 min; Hexobarbital Sleeping Time, Mean ([5]; 50 mg/kg, p<0.05): 81.9 min; Hexobarbital Sleeping Time, Mean ([5]; 100 mg/kg, p<0.05): 104.4 min; Barbital Sleeping Time, Mean ([6]; 25 mg/kg): 120.6 min; Barbital Sleeping Time, Mean ([6]; 50 mg/kg): 155.1 min; Barbital Sleeping Time, Mean ([6]; 100 mg/kg): 179.5 min; barbiturate induced sleeping times [7]: prolongation of barbiturate induced sleeping times; H.R. ([8]; time 0, N 5): 331.2 Beats/Min; Resp ([8]; time 0, N 5): 120.8 Breath/Min; Temp ([8]; time 0, N 5): 38.5 °C; H.R. ([8]; time 30, N 4): 314.0 Beats/Min; H.R. Δ From Veh ([8]; time 30, N 4): -34.0 Beats/Min; Resp ([8]; time 30, N 4): 101.2 Breath/Min; Resp Δ From Veh ([8]; time 30, N 4): -33.1 Breath/Min; Temp ([8]; time 30, N 4): 37.6 °C; Temp Δ From Veh ([8]; time 30, N 4): -0.4 °C; H.R. ([8]; time 60, N 4): 288.0 Beats/Min; H.R. Δ From Veh ([8]; time 60, N 4): -36.0 Beats/Min; Resp ([8]; time 60, N 4): 79.7 Breath/Min; Resp Δ From Veh ([8]; time 60, N 4): -65.9 Breath/Min; Temp ([8]; time 60, N 4): 36.8 °C; Temp Δ From Veh ([8]; time 60, N 4): -2.4 °C; H.R. ([8]; time 120, N 4): 273.0 Beats/Min; H.R. Δ From Veh ([8]; time 120, N 4): -55.0 Beats/Min; Resp ([8]; time 120, N 4): 70.0 Breath/Min; Resp Δ From Veh ([8]; time 120, N 4): -49.2 Breath/Min; Temp ([8]; time 120, N 4): 35.8 °C; Temp Δ From Veh ([8]; time 120, N 4): -2.4 °C; H.R. ([8]; time 180, N 4): 270.0 Beats/Min; H.R. Δ From Veh ([8]; time 180, N 4): -66.0 Beats/Min; Resp ([8]; time 180, N 4): 78.2 Breath/Min; Resp Δ From Veh ([8]; time 180, N 4): -41.8 Breath/Min; Temp ([8]; time 180, N 4): 35.4 °C; Temp Δ From Veh ([8]; time 180, N 4): -3.4 °C; H.R. ([8]; time 240, N 4): 289.0 Beats/Min; H.R. Δ From Veh ([8]; time 240, N 4): -51.0 Beats/Min; Resp ([8]; time 240, N 4): 82.3 Breath/Min; Resp Δ From Veh ([8]; time 240, N 4): -33.0 Breath/Min; Temp ([8]; time 240, N 4): 35.0 °C; Temp Δ From Veh ([8]; time 240, N 4): -3.6 °C

Q: For `O=[N+]([O-])c1ccc2c(c1)Oc1cccnc1S2` [7-nitro-1-azaphenoxathiin], which “activity as an anticonvulsant” value [9] is on record?
A: Its value is “essentially no activity”.

Q: What about the “Average Onset Time” value ([9]; 50 mg/kg) of the same molecule?
A: Its value is 3.21 min.

Q: What about the “Average Onset Time” value ([9]; 100 mg/kg) of the same molecule?
A: Its value is 3.06 min.

Q: And the “Average Onset Time” value ([9]; 200 mg/kg)?
A: The value was 3.06 min.

Q: What about the toxicity [10] of the same molecule?
A: Its toxicity is “surprisingly low toxicity”.
